This passage reports Ki and Emax results from ChEMBL document CHEMBL1137955, “Advances toward new antidepressants beyond SSRIs: 1-aryloxy-3-piperidinylpropan-2-ols with dual 5-HT1A receptor antagonism/SSRI activities. Part 4” (Bioorg Med Chem Lett, 2004).

In test [1] the target is T1, 5-hydroxytryptamine receptor 1A (Homo sapiens, UniProt P08908).
T1 sequence (P08908 whole entry): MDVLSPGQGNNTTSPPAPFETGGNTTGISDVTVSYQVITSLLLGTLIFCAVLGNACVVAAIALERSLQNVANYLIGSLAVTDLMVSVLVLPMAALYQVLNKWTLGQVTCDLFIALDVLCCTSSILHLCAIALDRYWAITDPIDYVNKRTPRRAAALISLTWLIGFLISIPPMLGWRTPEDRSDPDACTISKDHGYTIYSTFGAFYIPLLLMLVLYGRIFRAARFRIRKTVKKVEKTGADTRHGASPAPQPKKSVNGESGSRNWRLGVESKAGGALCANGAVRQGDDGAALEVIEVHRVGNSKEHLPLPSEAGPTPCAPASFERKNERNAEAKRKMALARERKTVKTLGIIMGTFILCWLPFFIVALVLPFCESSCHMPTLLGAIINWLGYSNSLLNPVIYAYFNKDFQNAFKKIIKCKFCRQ
Nature of the test: Binding affinity was evaluated at 5-hydroxytryptamine 1A receptor labeled with [3H]-8-OH-DPAT.

The target of test [2] is T2, 5-hydroxytryptamine receptor 1A (Homo sapiens) (UniProt P08908).
T2 sequence (whole entry): T1 sequence (P08908 whole entry)
Nature of the test: Evaluated for stimulation at 1 uM concentration expressed as percent of the maximal [35S]GTP-gamma-S, binding induced by 5-hydroxytryptamine. It counts as functional.

For test [3], the target named is Sodium-dependent serotonin transporter (Homo sapiens, UniProt P31645). Nature of the test: Binding affinity at 5-HT reuptake site labeled with [3H]paroxetine.
Sequence of Sodium-dependent serotonin transporter (P31645 whole entry): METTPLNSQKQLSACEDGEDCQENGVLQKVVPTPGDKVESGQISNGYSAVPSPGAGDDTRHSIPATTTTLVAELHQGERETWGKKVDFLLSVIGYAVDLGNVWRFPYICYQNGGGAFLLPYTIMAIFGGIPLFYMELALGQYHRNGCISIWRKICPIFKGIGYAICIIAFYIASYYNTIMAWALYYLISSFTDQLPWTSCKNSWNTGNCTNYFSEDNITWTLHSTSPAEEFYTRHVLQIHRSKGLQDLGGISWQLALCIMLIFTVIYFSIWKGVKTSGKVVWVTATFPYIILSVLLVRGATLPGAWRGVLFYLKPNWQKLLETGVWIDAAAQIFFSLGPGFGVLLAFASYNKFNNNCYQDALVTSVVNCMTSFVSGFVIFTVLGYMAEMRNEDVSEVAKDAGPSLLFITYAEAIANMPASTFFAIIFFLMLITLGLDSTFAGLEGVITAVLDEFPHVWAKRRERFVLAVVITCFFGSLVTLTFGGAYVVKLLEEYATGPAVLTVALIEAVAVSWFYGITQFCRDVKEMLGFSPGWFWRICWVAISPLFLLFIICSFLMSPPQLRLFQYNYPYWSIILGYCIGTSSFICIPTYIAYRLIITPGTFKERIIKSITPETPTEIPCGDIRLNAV

What is called Ki is a measure of affinity in units of concentration, obtained from inhibition or displacement. High values mean a looser hold on the target, low ones a stronger hold on the target. For orientation: Emax means the maximal effect, on the per cent scale that the assay sets. With `O[C@@H](COc1cccc2[nH]ccc12)CN1CCC(c2cc3ccccc3s2)CC1`, the Ki turned out to be 3.7 nM in test [1] and 16.7 nM in test [3]. The same compound registered an Emax in test [2] of 12%.
On the same counts, the results for `Cc1cc2c(OC[C@H](O)CN3CC[C@@H](c4ccc5sccc5c4)C[C@@H]3C)cccc2[nH]1` are 1.43 nM, 0.3 nM and 12%.
On to `O[C@@H](COc1cccc2[nH]ccc12)CN1CCC(c2csc3ccccc23)CC1`, for which, in test [1], the Ki came out at 1.84 nM.
On to `Cc1cc2c(OC[C@@H](O)CN3CC[C@@H](c4ccc5scc(C)c5c4)C[C@@H]3C)cccc2[nH]1`, for which the Ki in test [1] came to 3.12 nM; in test [3], 0.54 nM. The compound also gave an Emax in test [2] of 8%.
On the same counts, the results for `Cc1cc2c(OC[C@@H](O)CN3CC[C@@H](c4cccc5occc45)C[C@@H]3C)cccc2[nH]1` are 1.23 nM, 7.18 nM and 8%.
On the same counts, the results for `Cc1cc2c(OC[C@H](O)CN3CC[C@@H](c4ccc5occc5c4)C[C@@H]3C)cccc2[nH]1` are 1.39 nM, 1.69 nM and 9%.
The compound `Cc1cc2c(OC[C@@H](O)CN3CC[C@@H](c4cc5ccccc5s4)C[C@@H]3C)cccc2[nH]1` gave a Ki in test [3] of 0.53 nM.
As for `Cc1cc2c(OC[C@@H](O)CN3CC[C@@H](c4cccc5ccsc45)C[C@@H]3C)cccc2[nH]1`, the Ki in test [1] worked out at 0.91 nM; in test [3], 9.24 nM. In test [2], this compound gave an Emax of 8%.
For `COc1cccc2ccc([C@@H]3CCN(C[C@H](O)COc4cccc5[nH]c(C)cc45)[C@@H](C)C3)cc12`, the figures for the Ki in test [1] and in test [3] were 10.9 nM and 0.34 nM, respectively. Besides, the Emax in test [2] worked out at 11%.
For the compound `Cc1cc2c(OC[C@H](O)CN3CC[C@@H](c4cccc5sccc45)C[C@@H]3C)cccc2[nH]1`, the Ki in test [1] is 1.82 nM; in test [3], 4.35 nM. In addition, the maximum response (Emax) in test [2] is 15%.
`Cc1cc2c(OC[C@@H](O)CN3CC[C@@H](c4ccc5ccsc5c4)C[C@@H]3C)cccc2[nH]1`: the Ki in test [1] amounted to 4.45 nM; in test [3] it was 0.75 nM. In addition, the Emax in test [2] turned out to be 12%.
For `Cc1cc2c(OC[C@@H](O)CN3CC[C@@H](c4ccc5ccccc5c4)C[C@@H]3C)cccc2[nH]1`, in that order: 5.11 nM, 0.4 nM and 9%.
In test [2], `COc1cccc2sc([C@@H]3CCN(C[C@H](O)COc4cccc5[nH]c(C)cc45)[C@@H](C)C3)cc12` had an Emax of 3%. The compound also yielded a Ki in test [3] of 0.86 nM.
Regarding `Cc1cc2c(OC[C@@H](O)CN3CC[C@@H](c4ccc5c(C)csc5c4)C[C@@H]3C)cccc2[nH]1`, the results for the Ki in test [1] and in test [3] were 7.82 nM and 0.58 nM, respectively. For the same compound, the Emax in test [2] was found to be 4%.
For `Cc1cc2c(OC[C@@H](O)CN3CC[C@@H](c4ccc5ccoc5c4)C[C@@H]3C)cccc2[nH]1`, in that order: 1.05 nM, 3.77 nM and 6%.
